Experiment [1] deals with U937 human histiocytic leukemia cell line. Put plainly: Inhibition of TSQ induced necroptosis in U937 cells (CellTitre-Glo). Conditions: Homo sapiens, U-937, TSQ cocktail (TNF, Smac mimetic, Q-VD-OPh), 48 hours, read-out: Inhibition of TSQ-induced necroptosis (IC50 cell-based assay). In outline:
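U937 cells (20000/well) treated with compound (10-point, 1:3 from 36 μM, 0.3% DMSO) plus TSQ cocktail (hTNF-Fc 100 ng/ml, Smac mimetic 500 nM, Q-VD-OPh 10 μM), 48 h at 37 °C. Viability by CellTiter-Glo luminescence; IC50 from 4-parameter logistic fit. Counter screen: same cells without TSQ.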

For another experiment, the system named is U937 cells. Nature of the experiment: Counter screen: U937 cell viability without TSQ cocktail (off-target effect). Set-up: species or system human. The conditions noted are these: Homo sapiens, U-937, compound without TSQ cocktail, read-out: Off-target effect (IC50 cell-based assay). In outline:
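U937 cells (20,000/well) exposed to compound (10-point 1:3 titration from 36 μM, 0.3% DMSO) without TSQ cocktail for 48 h at 37 °C/5% CO2. Viability read as ATP by CellTiter-Glo luminescence; IC50 from 4-parameter logistic fit.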

Some results are limits rather than exact numbers.

In general, IC50 refers to the concentration at which inhibition is half-maximal. Regarding `C[C@H](Oc1cc(-c2nn(C)c3c(-c4cnn(C5CCN(C)C(C)(C)C5)c4)cnc(N)c23)ccc1NS(=O)(=O)C(F)F)c1ccc(F)cc1` (single isomer, unassigned) [Compound 113], the IC50 in experiment [1] is under 10 nM; with U937 cells it was over 10000 nM.

For `C[C@H](Oc1cc(-c2nn(C)c3c(-c4cnn(C5CCN(C)C(C)(C)C5)c4)cnc(N)c23)ccc1NS(=O)(=O)C(F)F)c1ccc(F)cc1` (single isomer, unassigned) [Compound 154, N-(4-(4-amino-1-methyl-7-(1-((R*)-1,2,2-trimethylpiperidin-4-yl)-1H-pyrazol-4-yl)-1H-pyrazolo[4,3-c]pyridin-3-yl)-2-((S)-1-(4-fluorophenyl)ethoxy)phenyl)-1,1-difluoromethanesulfonamide], the figures for the IC50 (in experiment [1]; in the experiment with U937 cells) were under 10 nM and over 10000 nM, respectively.

For the compound `C[C@H](Oc1cc(-c2nn(C)c3c(-c4cnn(C5CCN(C)C6(CC6)C5)c4)cnc(N)c23)ccc1NS(=O)(=O)C(F)F)c1ccc(F)cc1` (single isomer, unassigned) [Compound 170, N-(4-(4-amino-1-methyl-7-(1-((S*)-4-methyl-4-azaspiro[2.5]octan-7-yl)-1H-pyrazol-4-yl)-1H-pyrazolo[4,3-c]pyridin-3-yl)-2-((S)-1-(4-fluorophenyl)ethoxy)phenyl)-1,1-difluoromethanesulfonamide], the IC50 in experiment [1] is 10 to 1000 nM; with U937 cells, over 10000 nM.

With `COCCn1cc(-c2cnc(N)c3c(-c4ccc(NS(=O)(=O)C(F)F)c(O[C@@H](C)c5ccc(F)cc5)c4)nn(C)c23)cn1` [Compound 29, (S)-N-(4-(4-amino-7-(1-(2-methoxyethyl)-1H-pyrazol-4-yl)-1-methyl-1H-pyrazolo[4,3-c]pyridin-3-yl)-2-(1-(4-fluorophenyl)ethoxy)phenyl)-1,1-difluoromethanesulfonamide], the IC50 is under 10 nM in experiment [1] and over 10000 nM in the experiment with U937 cells.

For the compound `C[C@H](Oc1cc(-c2nn(C)c3c(-c4cnn(C5CCCC5)c4)cnc(N)c23)ccc1NS(=O)(=O)C(F)F)c1ccc(F)cc1` [Compound 30, (S)-N-(4-(4-amino-7-(1-cyclopentyl-1H-pyrazol-4-yl)-1-methyl-1H-pyrazolo[4,3-c]pyridin-3-yl)-2-(1-(4-fluorophenyl)ethoxy)phenyl)-1,1-difluoromethanesulfonamide], the IC50 is under 10 nM in experiment [1] and over 10000 nM in the experiment on U937 cells.

Turning to `C[C@H](Oc1cc(-c2nn(C)c3c(-c4cnn(C5CCN(C)CC5)c4)cnc(N)c23)ccc1NS(=O)(=O)C(F)F)c1ccc(F)cc1` [Compound 46, (S)-N-(4-(4-amino-1-methyl-7-(1-(1-methylpiperidin-4-yl)-1H-pyrazol-4-yl)-1H-pyrazolo[4,3-c]pyridin-3-yl)-2-(1-(4-fluorophenyl)ethoxy)phenyl)-1,1-difluoromethanesulfonamide], the IC50 lay within 10 to 1000 nM in experiment [1] and 1000 to 10000 nM in the experiment with U937 cells.

On to `C[C@H](Oc1cc(-c2nn(C)c3c(C#CC4CCNCC4)cnc(N)c23)ccc1NS(=O)(=O)C(F)F)c1ccc(F)cc1` [Compound 79, (S)—N-(4-(4-amino-1-methyl-7-(piperidin-4-ylethynyl)-1H-pyrazolo[4,3-c]pyridin-3-yl)-2-(1-(4-fluorophenyl)ethoxy)phenyl)-1,1-difluoromethanesulfonamide], for which the figures for the IC50 (in experiment [1]; in the experiment on U937 cells) were 10 to 1000 nM and over 10000 nM, respectively.

For `C[C@H](Oc1cc(-c2nn(C)c3c(C#CC4CCN(C)CC4)cnc(N)c23)ccc1NS(=O)(=O)C(F)F)c1ccc(F)cc1` [Compound 80, (S)—N-(4-(4-amino-1-methyl-7-((1-methylpiperidin-4-yl)ethynyl)-1H-pyrazolo[4,3-c]pyridin-3-yl)-2-(1-(4-fluorophenyl)ethoxy)phenyl)-1,1-difluoromethanesulfonamide], the IC50 in experiment [1] was 10 to 1000 nM; in the experiment on U937 cells it was over 10000 nM.

With `CC(C)N(C)C(=O)C(C)n1cc(-c2cnc(N)c3c(-c4ccc(NS(=O)(=O)C(F)F)c(O[C@@H](C)c5ccc(F)cc5)c4)nn(C)c23)cn1` (stereo partly drawn) [Compound 81, 2-(4-(4-amino-3-(4-((difluoromethyl)sulfonamido)-3-((S)-1-(4-fluorophenyl)ethoxy)phenyl)-1-methyl-1H-pyrazolo[4,3-c]pyridin-7-yl)-1H-pyrazol-1-yl)-N-isopropyl-N-methylpropanamide], the IC50 was under 10 nM in experiment [1] and over 10000 nM with U937 cells.

As to `C[C@H](Oc1cc(-c2nn(C)c3c(-c4cnn(C(C)(C)CO)c4)cnc(N)c23)ccc1NS(=O)(=O)C(F)F)c1ccc(F)cc1` [Compound 97, (S)-N-(4-(4-amino-7-(1-(1-hydroxy-2-methylpropan-2-yl)-1H-pyrazol-4-yl)-1-methyl-1H-pyrazolo[4,3-c]pyridin-3-yl)-2-(1-(4-fluorophenyl)ethoxy)phenyl)-1,1-difluoromethanesulfonamide], the IC50 in experiment [1] is 10 to 1000 nM; in the experiment on U937 cells it was over 10000 nM.

On to `C[C@H](Oc1cc(-c2nn(C)c3c(-c4cnn(C5(CC#N)COC5)c4)cnc(N)c23)ccc1NS(=O)(=O)C(F)F)c1ccc(F)cc1` [Compound 98, (S)-N-(4-(4-amino-7-(1-(3-(cyanomethyl)oxetan-3-yl)-1H-pyrazol-4-yl)-1-methyl-1H-pyrazolo[4,3-c]pyridin-3-yl)-2-(1-(4-fluorophenyl)ethoxy)phenyl)-1,1-difluoromethanesulfonamide], for which the half-inhibitory concentration (IC50) in experiment [1] was 10 to 1000 nM; with U937 cells it was over 10000 nM.

As for `C[C@H](Oc1cc(-c2nn(C)c3c(-c4cnn(C5CC6(C5)CN(C)C6)c4)cnc(N)c23)ccc1NS(=O)(=O)C(F)F)c1ccc(F)cc1` [Compound 99, (S)-N-(4-(4-amino-1-methyl-7-(1-(2-methyl-2-azaspiro[3.3]heptan-6-yl)-1H-pyrazol-4-yl)-1H-pyrazolo[4,3-c]pyridin-3-yl)-2-(1-(4-fluorophenyl)ethoxy)phenyl)-1,1-difluoromethanesulfonamide], the IC50 was 10 to 1000 nM in experiment [1] and over 10000 nM in the experiment with U937 cells.

`[2H]C([2H])([2H])N1CCC(n2cc(-c3cnc(N)c4c(-c5ccc(NS(=O)(=O)C(F)F)c(O[C@@H](C)c6ccc(F)cc6)c5)nn(C)c34)cn2)CC1` [Compound 103]: the IC50 is under 10 nM in experiment [1] and over 10000 nM in the experiment on U937 cells.

`C[C@H](Oc1cc(-c2nn(C)c3c(-c4cnn(C5CCC(C)(C)N(C)C5)c4)cnc(N)c23)ccc1NS(=O)(=O)C(F)F)c1ccc(F)cc1` (stereo partly shown) [Compound 104, N-(4-{4-amino-1-methyl-7-[1-(1,6,6-trimethylpiperidin-3-yl)-1H-pyrazol-4-yl]-1H-pyrazolo[4,3-c]pyridin-3-yl}-2-[(1 S)-1-(4-fluorophenyl)ethoxy]phenyl)-1,1-difluoromethanesulfonamide]: the IC50 in experiment [1] was under 10 nM; with U937 cells, over 10000 nM.

Consider `CC(=O)N1CCC(n2cc(-c3cnc(N)c4c(-c5ccc(NS(=O)(=O)C(F)F)c(O[C@@H](C)c6ccc(F)cc6)c5)nn(C)c34)cn2)CC1` [Compound 109, (S)—N-(4-(7-(1-(1-acetylpiperidin-4-yl)-1H-pyrazol-4-yl)-4-amino-1-methyl-1H-pyrazolo[4,3-c]pyridin-3-yl)-2-(1-(4-fluorophenyl)ethoxy)phenyl)-1,1-difluoromethanesulfonamide], for which the IC50 in experiment [1] is under 10 nM; in the experiment with U937 cells, over 10000 nM.

Turning to `C[C@H](Oc1cc(-c2nn(C)c3c(-c4cnn(CC(F)(F)F)c4)cnc(N)c23)ccc1NS(=O)(=O)C(F)F)c1ccc(F)cc1` [Compound 116, (S)-N-(4-(4-amino-1-methyl-7-(1-(2,2,2-trifluoroethyl)-1H-pyrazol-4-yl)-1H-pyrazolo[4,3-c]pyridin-3-yl)-2-(1-(4-fluorophenyl)ethoxy)phenyl)-1,1-difluoromethanesulfonamide], the values for the IC50 (in experiment [1]; in the experiment with U937 cells) were under 10 nM and over 10000 nM, respectively.

With `C[C@H](Oc1cc(-c2nn(C)c3c(-c4cnn(C5CCC(F)(F)C5)c4)cnc(N)c23)ccc1NS(=O)(=O)C(F)F)c1ccc(F)cc1` (stereo partly drawn) [Compound 120, N-(4-{4-amino-7-[1-(3,3-difluorocyclopentyl)-1H-pyrazol-4-yl]-1-methyl-1H-pyrazolo[4,3-c]pyridin-3-yl}-2-[(1S)-1-(4-fluorophenyl)ethoxy]phenyl)-1,1-difluoromethanesulfonamide], the IC50 is under 10 nM in experiment [1] and over 10000 nM in the experiment on U937 cells.

For the compound `C[C@@H](Oc1cc(-c2nn(C)c3c(-c4cnn(C5CCOCC5)c4)cnc(N)c23)ccc1NS(=O)(=O)C(F)F)c1ccc(F)cc1` [Compound 121, (R)-N-(4-(4-amino-1-methyl-7-(1-(tetrahydro-2H-pyran-4-yl)-1H-pyrazol-4-yl)-1H-pyrazolo[4,3-c]pyridin-3-yl)-2-(1-(4-fluorophenyl)ethoxy)phenyl)-1,1-difluoromethanesulfonamide], the IC50 in experiment [1] is 10 to 1000 nM; in the experiment on U937 cells, over 10000 nM.

`C[C@H](Oc1cc(-c2nn(C)c3c(-c4cnn(C5CCOCC5)c4)cnc(N)c23)ccc1NS(=O)(=O)C(F)F)c1cccc(Cl)c1` [Compound 122, (S)-N-(4-(4-amino-1-methyl-7-(1-(tetrahydro-2H-pyran-4-yl)-1H-pyrazol-4-yl)-1H-pyrazolo[4,3-c]pyridin-3-yl)-2-(1-(3-chlorophenyl)ethoxy)phenyl)-1,1-difluoromethanesulfonamide]: the results for the IC50 (in experiment [1]; in the experiment with U937 cells) were 10 to 1000 nM and over 10000 nM, respectively.

Turning to `C[C@H](Oc1cc(-c2nn(C)c3c(-c4cnn(CCC(F)(F)F)c4)cnc(N)c23)ccc1NS(=O)(=O)C(F)F)c1ccc(F)cc1` [Compound 131, (S)-N-(4-(4-amino-1-methyl-7-(1-(3,3,3-trifluoropropyl)-1H-pyrazol-4-yl)-1H-pyrazolo[4,3-c]pyridin-3-yl)-2-(1-(4-fluorophenyl)ethoxy)phenyl)-1,1-difluoromethanesulfonamide], the IC50 in experiment [1] was 10 to 1000 nM; in the experiment with U937 cells it was over 10000 nM.

Source of the values: patent US20250059188A1, “ARYLSULPHONAMIDE COMPOUNDS” (Anaxis Pharma Pty Ltd, priority 2021, published 2025).
